Test results taken from DBAASP.
Values after ≈ are worked out from the molar mass of the structure shown.

Columns and labels:
Test in all cases: ≥ marks a high value that may be exact or a test limit, other limits are often not marked, values filed in µg/mL are converted to µM
[1] = tested on: Staphylococcus aureus ATCC 25923
[2] = tested on: Cutibacterium acnes ATCC 15725
[3] = tested on: Cutibacterium acnes ATCC 11828
[4] = tested on: Acinetobacter baumannii NM35
[5] = tested on: Candida albicans ATCC 90028
[6] = tested on: Cutibacterium acnes ATCC 33257
[7] = tested on: Cutibacterium acnes ATCC 50247
[8] = tested on: Cutibacterium acnes ATCC 29903
[9] = tested on: Acinetobacter baumannii NM109
[10] = tested on: Acinetobacter baumannii NM124
[11] = tested on: Cutibacterium acnes ATCC 31766
[12] = tested on: Acinetobacter baumannii NM8
[13] = tested on: Acinetobacter baumannii NM75
[14] = tested on: Escherichia coli ATCC 25726
[15] = tested on: Cutibacterium acnes ATCC 18380
[16] = tested on: Cutibacterium acnes ATCC 32548
[17] = tested on: Micrococcus luteus ATCC 10240
[18] = tested on: Agrobacterium tumefaciens ATCC 15955
Escherichia coli BL21AI = tested on: Escherichia coli BL21AI
[19] = tested on: Klebsiella pneumoniae K6 ATCC 700603
Escherichia coli D31 = tested on: Escherichia coli D31
Escherichia coli 45849 = tested on: Escherichia coli 45849
[20] = tested on: Salmonella enterica subsp. enterica serovar Typhi S5
[21] = tested on: Klebsiella pneumoniae 123132
[22] = tested on: Salmonella enterica subsp. enterica serovar Typhimurium ATCC 700408
[23] = tested on: Bacillus cereus ATCC 11778
[24] = tested on: Escherichia coli ATCC 25922
[25] = tested on: Escherichia coli ATCC 35218
[26] = tested on: Pseudomonas aeruginosa ATCC 9027
[27] = tested on: Streptococcus pyogenes ATCC 19615
[28] = tested on: Salmonella enterica subsp. arizonae ATCC 13314
[29] = tested on: Staphylococcus epidermidis ATCC 12228
Escherichia coli O157 = tested on: Escherichia coli O157
[30] = tested on: Enterococcus faecalis ATCC 29212
[31] = tested on: Micrococcus luteus ATCC 9341
[32] = tested on: Proteus mirabilis ATCC 25933
[33] = tested on: Enterobacter cloacae HNTCC 53001
[34] = tested on: Staphylococcus aureus NCTC 8325
[35] = tested on: Pseudomonas aeruginosa ATCC 27853
[36] = tested on: Klebsiella pneumoniae KK3 9904
[37] = tested on: Staphylococcus epidermidis RP62A
[38] = tested on: Staphylococcus aureus T7/20
[39] = tested on: Pseudomonas aeruginosa BNCC 125486
Escherichia coli K-12 = tested on: Escherichia coli K-12
[40] = tested on: Staphylococcus aureus USA 300
Bacillus subtilis 168 = tested on: Bacillus subtilis 168
[41] = tested on: Escherichia coli BNCC 133264
[42] = tested on: Staphylococcus aureus BNCC 186335
[43] = tested on: Pseudomonas aeruginosa PAO1
Listeria monocytogenes = tested on: Listeria monocytogenes
Escherichia coli = tested on: Escherichia coli
Staphylococcus aureus = tested on: Staphylococcus aureus

Compound: CC[C@H](C)[C@H](NC(=O)[C@@H](NC(=O)CN)C(C)C)C(=O)N[C@@H](CCCCN)C(=O)N[C@@H](CO)C(=O)N[C@H](C(=O)N[C@@H](CC(C)C)C(=O)N[C@@H](CCCCN)C(=O)NCC(=O)N[C@H](C(=O)N[C@@H](C)C(=O)N[C@@H](CCCCN)C(=O)N[C@H](C(=O)N[C@H](C(=O)N[C@@H](C)C(=O)N[C@@H](CC(C)C)C(=O)NCC(=O)N[C@@H](CCSC)C(=O)N[C@@H](CC(C)C)C(N)=O)C(C)C)[C@@H](C)O)C(C)C)C(C)C [GVIKSVLKGVAKTVALGML]
- MIC [1]: 12.5 µM (≈ 23.5 µg/mL)
- MIC [2]: 12.5 µM (≈ 23.5 µg/mL)
- MIC [3]: 12.5 µM (≈ 23.5 µg/mL)
- MIC [4]: 6 µM (≈ 11.3 µg/mL)
- MIC [5]: ≥ 50 µM
- MIC [6]: 12.5 µM (≈ 23.5 µg/mL)
- MIC [7]: 6 µM (≈ 11.3 µg/mL)
- MIC [8]: 25 µM (≈ 47.1 µg/mL)
- MIC [9]: 12.5 µM (≈ 23.5 µg/mL)
- MIC [10]: 12.5 µM (≈ 23.5 µg/mL)
- MIC [11]: 6 µM (≈ 11.3 µg/mL)
- MIC [12]: 6 µM (≈ 11.3 µg/mL)
- MIC [13]: 12.5 µM (≈ 23.5 µg/mL)
- MIC [14]: 12.5 µM (≈ 23.5 µg/mL)
- MIC [15]: ≥ 50 µM
- MIC [16]: 12.5 µM (≈ 23.5 µg/mL)

Compound: CC[C@H](C)[C@H](NC(=O)[C@H](Cc1ccc(O)cc1)NC(=O)[C@@H](NC(=O)[C@@H]1CCCN1C(=O)[C@H](CCCN=C(N)N)NC(=O)[C@H](CC(N)=O)NC(=O)[C@H](CC(N)=O)NC(=O)[C@@H](N)CCCCN)C(C)C)C(=O)N1CCC[C@H]1C(=O)N[C@@H](CCCCN)C(=O)N1CCC[C@H]1C(=O)N[C@@H](CCCN=C(N)N)C(=O)N1CCC[C@H]1C(=O)N1CCC[C@H]1C(=O)N[C@@H](Cc1cnc[nH]1)C(=O)N1CCC[C@H]1C(=O)N[C@@H](CCCN=C(N)N)C(=O)N[C@@H](CC(C)C)C(N)=O [KNNRPVYIPKPRPPHPRL]
- MIC [17]: 0.634 µM (≈ 1.38 µg/mL)
- MIC [18]: 0.298 µM (≈ 0.65 µg/mL)
- MIC (Escherichia coli BL21AI): 1.27 µM (≈ 2.76 µg/mL)
- MIC [19]: 3.67 µM (≈ 8 µg/mL)
- MIC (Escherichia coli D31): 3.67 µM (≈ 8 µg/mL)
- MIC (Escherichia coli 45849): 0.115 µM (≈ 0.25 µg/mL)
- MIC [20]: 0.459 µM (≈ 1 µg/mL)
- MIC [21]: 1.84 µM (≈ 4 µg/mL)
- MIC [22]: 0.162 µM (≈ 0.353 µg/mL)

Compound: CC(C)C[C@H](NC(=O)[C@H](CC(C)C)NC(=O)[C@H](CCC(N)=O)NC(=O)[C@H](Cc1ccc(O)cc1)NC(=O)[C@H](CCCN=C(N)N)NC(=O)CNC(=O)[C@H](C)NC(=O)[C@H](C)NC(=O)[C@@H](NC(=O)[C@H](CO)NC(=O)[C@H](Cc1ccc(O)cc1)NC(=O)[C@@H](NC(=O)[C@H](CCCCN)NC(=O)[C@H](Cc1ccc(O)cc1)NC(=O)[C@H](CCCN=C(N)N)NC(=O)[C@@H]1CCCN1C(=O)[C@H](CC(C)C)NC(=O)[C@H](Cc1ccc(O)cc1)NC(=O)[C@@H](NC(=O)[C@@H](N)CCCCN)C(C)C)C(C)C)[C@@H](C)O)C(N)=O [KVYLPRYKVYSTAAGRYQLL]
- MIC [23]: ≥ 150 µM
- MIC [24]: > 150 µM
- MIC [25]: ≥ 150 µM
- MIC [26]: > 150 µM
- MIC [27]: ≥ 150 µM
- MIC [28]: ≥ 150 µM
- MIC [29]: > 150 µM
- MIC (Escherichia coli O157): ≥ 150 µM
- MIC [30]: > 150 µM
- MIC [31]: ≥ 150 µM

Compound: CC[C@H](C)[C@H](NC(=O)[C@H](CCCCN)NC(=O)[C@H](CO)NC(=O)[C@@H](NC(=O)[C@H](CC(C)C)NC(=O)[C@H](CO)NC(=O)[C@@H]1CCCN1C(=O)[C@H](CC(C)C)NC(=O)[C@H](C)NC(=O)[C@H](CO)NC(=O)[C@H](C)NC(=O)[C@H](CC(C)C)NC(=O)[C@H](C)NC(=O)CNC(=O)[C@@H](NC(=O)[C@@H](NC(=O)[C@H](CO)NC(=O)CNC(=O)[C@H](CC(C)C)NC(=O)[C@@H](N)Cc1ccccc1)[C@@H](C)CC)C(C)C)[C@@H](C)CC)C(=O)N[C@@H](CCCN=C(N)N)C(=O)N[C@@H](CC(N)=O)C(N)=O [FLGSIVGALASALPSLISKIRN]
- MIC [24]: 25 µM (≈ 55.7 µg/mL)
- MIC [32]: ≥ 100 µM
- MIC [5]: ≥ 50 µM
- MIC [33]: ≥ 50 µM
- MIC [34]: 25 µM (≈ 55.7 µg/mL)
- MIC [35]: 50 µM (≈ 111 µg/mL)
- MIC [36]: ≥ 100 µM
- MIC [37]: 12.5 µM (≈ 27.8 µg/mL)
- MIC [30]: 50 µM (≈ 111 µg/mL)
- MIC [38]: 25 µM (≈ 55.7 µg/mL)

Compound: CC[C@H](C)[C@H](NC(=O)[C@H](CCCCN)NC(=O)[C@H](CCCN=C(N)N)NC(=O)[C@@H](NC(=O)[C@H](CC(C)C)NC(=O)[C@H](CCCCN)NC(=O)[C@H](CC(C)C)NC(=O)[C@@H](NC(=O)[C@H](CCCCN)NC(=O)CNC(=O)[C@H](Cc1ccccc1)NC(=O)[C@@H](N)Cc1ccccc1)C(C)C)[C@@H](C)CC)C(=O)N[C@@H](Cc1ccccc1)C(N)=O [FFGKVLKLIRKIF]
- MIC [39]: ≥ 79.5 µM
- MIC (Escherichia coli K-12): ≥ 100 µM
- MIC [40]: 3.1 µM (≈ 4.99 µg/mL)
- MIC (Bacillus subtilis 168): ≥ 100 µM
- MIC [41]: ≥ 79.5 µM
- MIC [42]: ≥ 39.8 µM
- MIC [43]: > 100 µM
- MIC (Listeria monocytogenes): 4.97 µM (≈ 8 µg/mL)
- MIC (Escherichia coli): > 79.5 µM
- MIC (Staphylococcus aureus): 39.8 µM (≈ 64 µg/mL)
